tested on: DLD-1 (prostate cancer); experiment: Toxicity to cultivated human cancer cells, MTT growth inhibition; type: cell-based; conditions: DLD-1 cells, 72 hours
Protocol: (§1) Note that the tests were performed as follows. Various kinds of human cancer cells (K562 (leukemia), H226 (lung cancer), DLD-1 (prostate cancer) and HT1080 (fibrosarcoma)) were suspended in RPMI1640 medium or DMEM medium containing 10% fetal calf serum and each adjusted to 5×10^3 cells/well, and 0.1 ml of this was seeded on a 96-well microplate. At the same time, a suitable amount of each of the substances F-1491 (substances F-1491A to F-1491H) was added and the resultant was cultivated at 37° C. for 72 hours in an atmosphere containing 5% CO2. Further, 10 μl of 0.5% MTT (3-[4,5-dimethylthiazol-2-yl]2,5-[…] tetrazolium bromide) was added and the resultant was cultivated for 4 hours. After the cultivation, 0.1 ml of 10% SDS-0.01N hydrochloric acid was added and absorbance at 570 nm was measured to determine 50% growth inhibition concentration.

**Q.** Which “50% growth inhibition concentration” value does the source give for `CC=C(C)C1C(C=CC=C(C)C(=O)CC)C2CC3OC3(C)CC2C2OC21C` (centres unmarked) [F-1491A] here?
**A.** >100 mg/L

**Q.** For `CC=C(C)C1C(C=CC=C(C)C(C)=O)C2CCC(C)(O)CC2C2OC21C` (centres unmarked) [F-1491F], which “50% growth inhibition concentration” value is on record?
**A.** >100 mg/L

**Q.** Which “50% growth inhibition concentration” value does the source give for `CC=C(C)C1C(C=CC=C(C)C(=O)CC)C2CCC(C)(O)CC2C2OC21C` (centres unmarked) [F-1491E] here?
**A.** >100 mg/L

**Q.** Which “50% growth inhibition concentration” value does the source give for `CC=C(C)C1C(C=CC=C(C)C(=O)CC)C2CC(Cl)C(C)(O)CC2C2OC21C` (centres unmarked) [F-1491C] here?
**A.** >100 mg/L

**Q.** For `CC=C(C)C1C(C=CC=C(C)C(C)=O)C2CC(O)C(C)(O)CC2C2OC21C` (centres unmarked) [F-1491H], which “50% growth inhibition concentration” value is on record?
**A.** >100 mg/L

**Q.** Which “50% growth inhibition concentration” value does the source give for `CC=C(C)C1C(C=CC=C(C)C(C)=O)C2CC(OC)C(C)(O)CC2C2OC21C` (centres unmarked) [F-1491G] here?
**A.** >100 mg/L

**Q.** With `CC=C(C)C1C(C=CC=C(C)C(C)=O)C2CC(Cl)C(C)(O)CC2C2OC21C` (centres unmarked) [F-1491D] as the compound, how does the “50% growth inhibition concentration” value read?
**A.** >100 mg/L

**Q.** With `CC=C(C)C1C(C=CC=C(C)C(C)=O)C2CC3OC3(C)CC2C2OC21C` (centres unmarked) [F-1491B] as the compound, how does the “50% growth inhibition concentration” value read?
**A.** >100 mg/L

tested on: H226 (lung cancer); experiment: as above; type: cell-based; conditions: 72 hours
Protocol: as §1

**Q.** For `CC=C(C)C1C(C=CC=C(C)C(=O)CC)C2CC3OC3(C)CC2C2OC21C` (centres unmarked) [F-1491A], which “50% growth inhibition concentration” value is on record?
**A.** >100 mg/L

**Q.** With `CC=C(C)C1C(C=CC=C(C)C(C)=O)C2CCC(C)(O)CC2C2OC21C` (centres unmarked) [F-1491F] as the compound, how does the “50% growth inhibition concentration” value read?
**A.** >100 mg/L

**Q.** With `CC=C(C)C1C(C=CC=C(C)C(=O)CC)C2CCC(C)(O)CC2C2OC21C` (centres unmarked) [F-1491E] as the compound, how does the “50% growth inhibition concentration” value read?
**A.** >100 mg/L

**Q.** For `CC=C(C)C1C(C=CC=C(C)C(=O)CC)C2CC(Cl)C(C)(O)CC2C2OC21C` (centres unmarked) [F-1491C], which “50% growth inhibition concentration” value is on record?
**A.** >100 mg/L

**Q.** With `CC=C(C)C1C(C=CC=C(C)C(C)=O)C2CC(O)C(C)(O)CC2C2OC21C` (centres unmarked) [F-1491H] as the compound, how does the “50% growth inhibition concentration” value read?
**A.** >100 mg/L

**Q.** With `CC=C(C)C1C(C=CC=C(C)C(C)=O)C2CC(OC)C(C)(O)CC2C2OC21C` (centres unmarked) [F-1491G] as the compound, how does the “50% growth inhibition concentration” value read?
**A.** >100 mg/L

**Q.** With `CC=C(C)C1C(C=CC=C(C)C(C)=O)C2CC(Cl)C(C)(O)CC2C2OC21C` (centres unmarked) [F-1491D] as the compound, how does the “50% growth inhibition concentration” value read?
**A.** >100 mg/L

**Q.** For `CC=C(C)C1C(C=CC=C(C)C(C)=O)C2CC3OC3(C)CC2C2OC21C` (centres unmarked) [F-1491B], which “50% growth inhibition concentration” value is on record?
**A.** >100 mg/L

tested on: K562 (leukemia); experiment: as above; type: cell-based; conditions: 72 hours
Protocol: as §1

**Q.** With `CC=C(C)C1C(C=CC=C(C)C(=O)CC)C2CC3OC3(C)CC2C2OC21C` (centres unmarked) [F-1491A] as the compound, how does the “50% growth inhibition concentration” value read?
**A.** 39 mg/L

**Q.** For `CC=C(C)C1C(C=CC=C(C)C(C)=O)C2CCC(C)(O)CC2C2OC21C` (centres unmarked) [F-1491F], which “50% growth inhibition concentration” value is on record?
**A.** 72 mg/L

**Q.** For `CC=C(C)C1C(C=CC=C(C)C(=O)CC)C2CCC(C)(O)CC2C2OC21C` (centres unmarked) [F-1491E], which “50% growth inhibition concentration” value is on record?
**A.** 68 mg/L

**Q.** For `CC=C(C)C1C(C=CC=C(C)C(=O)CC)C2CC(Cl)C(C)(O)CC2C2OC21C` (centres unmarked) [F-1491C], which “50% growth inhibition concentration” value is on record?
**A.** 52 mg/L

**Q.** Which “50% growth inhibition concentration” value does the source give for `CC=C(C)C1C(C=CC=C(C)C(C)=O)C2CC(O)C(C)(O)CC2C2OC21C` (centres unmarked) [F-1491H] here?
**A.** 61 mg/L

**Q.** With `CC=C(C)C1C(C=CC=C(C)C(C)=O)C2CC(OC)C(C)(O)CC2C2OC21C` (centres unmarked) [F-1491G] as the compound, how does the “50% growth inhibition concentration” value read?
**A.** 95 mg/L

**Q.** For `CC=C(C)C1C(C=CC=C(C)C(C)=O)C2CC(Cl)C(C)(O)CC2C2OC21C` (centres unmarked) [F-1491D], which “50% growth inhibition concentration” value is on record?
**A.** 80 mg/L

**Q.** For `CC=C(C)C1C(C=CC=C(C)C(C)=O)C2CC3OC3(C)CC2C2OC21C` (centres unmarked) [F-1491B], which “50% growth inhibition concentration” value is on record?
**A.** 36 mg/L

tested on: HT1080 (fibrosarcoma); experiment: as above; type: cell-based; conditions: 72 hours
Protocol: as §1

**Q.** For `CC=C(C)C1C(C=CC=C(C)C(=O)CC)C2CC3OC3(C)CC2C2OC21C` (centres unmarked) [F-1491A], which “50% growth inhibition concentration” value is on record?
**A.** >100 mg/L

**Q.** Which “50% growth inhibition concentration” value does the source give for `CC=C(C)C1C(C=CC=C(C)C(C)=O)C2CCC(C)(O)CC2C2OC21C` (centres unmarked) [F-1491F] here?
**A.** >100 mg/L

**Q.** Which “50% growth inhibition concentration” value does the source give for `CC=C(C)C1C(C=CC=C(C)C(=O)CC)C2CCC(C)(O)CC2C2OC21C` (centres unmarked) [F-1491E] here?
**A.** >100 mg/L

**Q.** For `CC=C(C)C1C(C=CC=C(C)C(=O)CC)C2CC(Cl)C(C)(O)CC2C2OC21C` (centres unmarked) [F-1491C], which “50% growth inhibition concentration” value is on record?
**A.** >100 mg/L

**Q.** Which “50% growth inhibition concentration” value does the source give for `CC=C(C)C1C(C=CC=C(C)C(C)=O)C2CC(O)C(C)(O)CC2C2OC21C` (centres unmarked) [F-1491H] here?
**A.** >100 mg/L

**Q.** For `CC=C(C)C1C(C=CC=C(C)C(C)=O)C2CC(OC)C(C)(O)CC2C2OC21C` (centres unmarked) [F-1491G], which “50% growth inhibition concentration” value is on record?
**A.** >100 mg/L

**Q.** With `CC=C(C)C1C(C=CC=C(C)C(C)=O)C2CC(Cl)C(C)(O)CC2C2OC21C` (centres unmarked) [F-1491D] as the compound, how does the “50% growth inhibition concentration” value read?
**A.** >100 mg/L

**Q.** With `CC=C(C)C1C(C=CC=C(C)C(C)=O)C2CC3OC3(C)CC2C2OC21C` (centres unmarked) [F-1491B] as the compound, how does the “50% growth inhibition concentration” value read?
**A.** >100 mg/L

tested on: human umbilical cord vein endothelial cells; experiment: Inhibition of proliferation of human umbilical cord vein endothelial cells (3H-thymidine incorporation); type: cell-based; conditions: bFGF 10 μg/l, 48 hours + 8 hours 3H-thymidine
Protocol: That is, 0.1 ml of human umbilical cord vein endothelial cells (Cell Systems Corporation) adjusted to 2×10^3 cells/well in MCDB131 medium (Chlorella Industry Co., Ltd.) containing 10 μg/l basic fibroblast cell growth factor and 10% fetal calf serum is seeded on a collagen-coated 96-well microplate (Sumitomo Bakelite Co., Ltd.) and at the same time a suitable amount of sample is added. The resultant is cultivated in an atmosphere containing 5% CO2 at 37° C. for 48 hours. Further, 1 μCi/well ^3H-tymidine is added and cultivation is performed for 8 hours. Then, the cells are collected using a cell harvester and the radioactivity incorporated into cells is measured using a scintillation counter.
When the sample contains an active substance for inhibiting the growth of angioendothelial cells, the incorporation of radioactivity into the cells is suppressed. Further, an effective concentration range of the sample is obtained from the change in radioactivity in the cells depending on the concentration of the sample.

**Q.** For `CC=C(C)C1C(C=CC=C(C)C(=O)CC)C2CC3OC3(C)CC2C2OC21C` (centres unmarked) [F-1491A], which “50% growth inhibition concentration” value is on record?
**A.** 2.2 mg/L

**Q.** For `CC=C(C)C1C(C=CC=C(C)C(C)=O)C2CCC(C)(O)CC2C2OC21C` (centres unmarked) [F-1491F], which “50% growth inhibition concentration” value is on record?
**A.** 9.3 mg/L

**Q.** For `CC=C(C)C1C(C=CC=C(C)C(=O)CC)C2CCC(C)(O)CC2C2OC21C` (centres unmarked) [F-1491E], which “50% growth inhibition concentration” value is on record?
**A.** 3.2 mg/L

**Q.** Which “50% growth inhibition concentration” value does the source give for `CC=C(C)C1C(C=CC=C(C)C(=O)CC)C2CC(Cl)C(C)(O)CC2C2OC21C` (centres unmarked) [F-1491C] here?
**A.** 7.4 mg/L

**Q.** With `CC=C(C)C1C(C=CC=C(C)C(C)=O)C2CC(O)C(C)(O)CC2C2OC21C` (centres unmarked) [F-1491H] as the compound, how does the “50% growth inhibition concentration” value read?
**A.** 5.6 mg/L

**Q.** For `CC=C(C)C1C(C=CC=C(C)C(C)=O)C2CC(OC)C(C)(O)CC2C2OC21C` (centres unmarked) [F-1491G], which “50% growth inhibition concentration” value is on record?
**A.** 7.7 mg/L

**Q.** For `CC=C(C)C1C(C=CC=C(C)C(C)=O)C2CC(Cl)C(C)(O)CC2C2OC21C` (centres unmarked) [F-1491D], which “50% growth inhibition concentration” value is on record?
**A.** 4.6 mg/L

**Q.** With `CC=C(C)C1C(C=CC=C(C)C(C)=O)C2CC3OC3(C)CC2C2OC21C` (centres unmarked) [F-1491B] as the compound, how does the “50% growth inhibition concentration” value read?
**A.** 3.4 mg/L

tested on: not listed separately; experiment: Solubility (physicochemical properties); conditions: in methanol, chloroform and dimethyl sulfoxide
Protocol: • (1) Form: white powder • (2) Molecular formula: C24H34O3 • (Measurement of C24H35O3 by high resolution FAB mass spectrometry Calculated m/z: 371.2586 (M+H)^+, Found m/z: 371.2580) • (3) Specific optical rotation: [α]D^26−194° (c 0.1, methanol) • (4) Melting point: 55 to 58° C. • (5) Infrared absorption spectrum: The results obtained by measurement by the KBr method are as shown in FIG. 1. […] The chemical shift, multiplicity and spin coupling constant of each signal are shown in Table 1. • (9) ^13C-NMR spectrum: Measurement was performed by dissolving the substance in heavy methanol and using tetramethylsilane as an internal standard. 2. Physicochemical Properties of the Substance F-1491B • (1) Form: white powder • (2) Molecular formula: C23H32O3 • (Measurement of C23H33O3 by high resolution FAB mass spectrometry Calculated m/z: 357.2430 (M+H)^+, Found m/z: 357.2463), • (3) Specific optical rotation: [α]D^26-222° (c 0.1, methanol) • (4) Melting point: 53 to 56° C. • (5) Infrared absorption spectrum: The results obtained by measurement by the KBr method are as shown in FIG. 2. […] The chemical shift, multiplicity, and spin coupling constant of each signal are shown in Table 1. • (9) ^13C-NMR spectrum: Measurement was performed by dissolving the substance in heavy methanol and using tetramethylsilane as an internal standard. 3. Physicochemical Properties of the Substance F-1491C • (1) Form: white powder • (2) Molecular formula: C24H35O3Cl • (Measurement of C24H35O3Cl by high resolution ESI mass spectrometry Calculated m/z: 429.2172 (M+Na)^+, Found m/z: 429.2204) • (3) Ultraviolet absorption spectrum (measured in methanol): […]

**Q.** Which Solubility does the source give for `CC=C(C)C1C(C=CC=C(C)C(=O)CC)C2CC3OC3(C)CC2C2OC21C` (centres unmarked) [F-1491A] here?
**A.** Soluble

**Q.** For `CC=C(C)C1C(C=CC=C(C)C(C)=O)C2CC3OC3(C)CC2C2OC21C` (centres unmarked) [F-1491B], which Solubility is on record?
**A.** Soluble

same assay, conditions: in water

**Q.** Which Solubility does the source give for `CC=C(C)C1C(C=CC=C(C)C(=O)CC)C2CC3OC3(C)CC2C2OC21C` (centres unmarked) [F-1491A] here?
**A.** hardly soluble

**Q.** Which Solubility does the source give for `CC=C(C)C1C(C=CC=C(C)C(C)=O)C2CC3OC3(C)CC2C2OC21C` (centres unmarked) [F-1491B] here?
**A.** hardly soluble
